Assay results from patent publication EP0912195B1, “VACCINE COMPRISING ANTIGENS BOUND TO CARRIERS THROUGH LABILE BONDS” (PEPSCAN SYSTEMS B.V., priority 1996, dated 1997).
Residues, ends and D or L forms follow the SMILES beside them. *: point of attachment. Palmitoyl = CCCCCCCCCCCCCCCC(=O)*

Conditions: 3 hours

Row | SMILES | stability of thioesters during acidolytic removal of tert-butyloxy functions and/or cleavage of the resin-peptide bond
1 | CCCCCCCCCCCCCCCC(=O)SC[C@H](NC(C)=O)C(=O)N[C@@H](CO)C(=O)N[C@@H](CCC(=O)O)C(=O)N[C@H](C(=O)N[C@@H](Cc1ccccc1)C(=O)N[C@@H](CCCNC(=N)N)C(=O)N1CCC[C@H]1C(=O)NCC(=O)NCC(=O)NCC(=O)N[C@@H](CC(=O)O)C(=O)N[C@@H](CCSC)C(=O)N[C@@H](CCCNC(=N)N)C(N)=O)[C@@H](C)CC [Ac-C(palm)SEIFRPGGGDMR-NH2] (Ac-C(Palmitoyl)SEIFRPGGGDMR-NH2) | stable under all these acidic conditions
2 | CCCCCCCCCCCCCCCC(=O)SC[C@H](NC(C)=O)C(=O)N[C@H](C(=O)N[C@@H](C)C(=O)N[C@H](C(=O)N[C@@H](CCC(N)=O)C(=O)N[C@@H](CC(C)C)C(=O)N1CCC[C@H]1C(=O)N[C@@H](C)C(=O)N[C@@H](CO)C(=O)N[C@@H](Cc1ccccc1)C(N)=O)[C@@H](C)O)C(C)C [Ac-C(palm)VATQLPASF-NH2] (Ac-C(Palmitoyl)VATQLPASF-NH2) | stable under all these acidic conditions
